Key:
NRAS G12D C118S = NRAS G12D C118S (Homo sapiens (Human), UniProt P01111, C118S/G12D); assay: NRas G12D Surface Plasmon Resonance (SPR) binding assay; conditions: Avi-tagged biotinylated NRAS G12D C118S on streptavidin chip, 25° C., 1:1 kinetic or steady-state fit
Protocol: NRas G12D Surface Plasmon Resonance (SPR) Binding Assay
This Example illustrates that exemplary compounds and salts thereof described herein bind to NRAS G12D as measured by surface plasmon resonance (SPR).
Two liters of 1.03× running buffer (1.03×HBS-P+pH 7.4, containing 0.0103 M HEPES, 0.1545 M NaCl, 0.0515% v/v Surfactant P20 (Cytiva®, BR100671); 5.15 mM MgCl2 (Invitrogen, AM9530G); 0.515 mM TCEP, pH 8.0 (GoldBio®, TCEP25)) was prepared and filter sterilized using a 0.22 μm filter. A 1-L volumetric flask was filled partway with this buffer. A 30-mL volumetric flask was used to measure 30 mL of 100% DMSO (Sigma Aldrich®, 41639-100ML) which was added to the 1-L flask. The solution in the 1-L flask was brought up to 1 L with 1.03× buffer, resulting in a 1.0× assay running buffer containing 1.0×HBS-P+, 5 mM MgCl2, […], and 3% DMSO. Remaining 1.03× buffer was used for preparation of samples and immobilization running buffer.
Samples were prepared in a standard conical-bottomed 384-well microplate by adding 2 μL 10 mM DMSO cpd stock to each well, followed by 8 μL DMSO. A control compound was selected based off of its relatively “fast” kinetics that could be fitted by 1:1 kinetic fitting, as well as by steady-state fitting. Control wells for periodic injection to assess protein activity throughout the assay were also assembled, by diluting 10 mM compound 1:30 in DMSO, then adding 20 μL to the appropriate wells, such that the final concentration of compound would be 10 μM, and the final concentration of DMSO would be 3%. A Biomek™ FXP Laboratory Automation Workstation was used to stamp 20 μL DMSO into all sample wells—minus the control wells—according to the plate map, and then serially dilute 1:3 by mixing and aspirating 10 μL, delivering into the 20 μL of DMSO in the next well, resulting in 10-point serial dilution curves. A Biotek™ Multiflo EL406 Washer Dispenser was used to deliver 80 μL of 1.03× buffer to the compound plate. The plate was mixed 10× by FX, then a final dilution was performed by stamping 18 μL from the compound plate into a 384-well deep-well plate that had also been previously filled with 102 μL 1.03× buffer via the Multiflo. The solution in the deep-well plate was mixed 10× by FX, then sealed with a 384-well microplate foil from Cytiva® (Cytiva® BR100577) and placed on an orbital shaker for 30 minutes at 1000 RPM to ensure complete mixing of the DMSO solution in the buffer. A solvent correction curve was also prepared by making a 4% DMSO solution in 1.03× buffer and diluting in 1.03× buffer such that there were eight solutions of decreasing DMSO concentrations resulting in a high DMSO concentration of 4% and a low concentration of 2% DMSO.
Immobilization running buffer was prepared in a 200-mL volume by diluting 1.03× running buffer prepared above to 1.0×. A Cytiva® Streptavidin chip (Cytiva®, 29104992) was docked into a Biacore™ S200 instrument, and the instrument was then primed three times into the immobilization running buffer. A protein stock of Avi-tagged NRAS G12D C118S was prepared in-house and biotinylated using the Bulk BirA: BirA biotin-protein ligase bulk reaction kit from Avidity (Avidity®, Bulk BirA). Upon completion of the biotinylation reaction, Amicon® ultra 0.5-mL Centrifugal Filters with a MWCO of 3 k Da (Millipore® UFC500396) were used to reduce the free biotin concentration below 0.1 μM in the protein sample over the course of eight desalting cycles, according to the manufacturer's protocol. Resulting protein concentration was not measured directly as an accurate protein concentration is not required for immobilizing protein on the chip surface; however, a theoretical yield of ≤1.5 mg/mL was estimated based off of retained volumes during the desalting process. Reagents for immobilization were prepared as instructed in the Biacore™ 5200 Control Software Immobilization Wizard, including solutions of 1 M NaCl in 50 mM NaOH, and 1 M NaCl in 50 mM NaOH and 50% isopropyl alcohol. […]

[1] = test system: THP-1 cells expressing G12D (NRAS G12D); assay: Inhibition of NRAS G12D-mediated phosphorylation of ERK (AlphaLISA p-ERK1/2) in THP-1 cells; type: cell-based; conditions: Homo sapiens, THP-1, 2 h, 2 hours incubation, HBSS with 0% or 10% FBS, p-ERK1/2 (Thr202/Tyr204) AlphaLISA, read-out: pERK THP-1 IC50
Protocol: Inhibition of NRAS G12D-Mediated Phosphorylation of ERK by Exemplary Compounds of Formulas I, II, and III.
This Example illustrates that exemplary compounds and salts thereof described herein inhibit the phosphorylation of ERK downstream of NRAS G12D.
THP-1 cells (ATCC TIB-202) expressing G12D were maintained in RPMI-1640 medium supplemented with 10% fetal bovine serum (FBS), 0.05 mM 2-mercaptoethanol, and penicillin/streptomycin. Cells (20,000/well) were seeded onto a 384 well plate in 20 μL of HBSS supplemented with 0% or 10% FBS. Cells were incubated in the absence or presence of various concentrations of test compound (final 1% DMSO) for 2 hours. p-ERK expression was assessed using the AlphaLISA SureFire Ultra p-ERK1/2 (Thr202/Tyr204) (PerkinElmer®, ALSU-PERK-A10K) following manufacturer recommendation. Plates were read on a PerkinElmer® Envision Multimode plate reader. Dose-response curves were analyzed using IC50 regression curve fitting (GeneData Screener). Curves were plotted as a percent control and normalized by high controls without inhibitor (100%), and low controls (0%) containing 1 μM of trametinib, a potent MEK inhibitor.

Chain of NRAS G12D C118S (P01111 whole entry G12D/C118S): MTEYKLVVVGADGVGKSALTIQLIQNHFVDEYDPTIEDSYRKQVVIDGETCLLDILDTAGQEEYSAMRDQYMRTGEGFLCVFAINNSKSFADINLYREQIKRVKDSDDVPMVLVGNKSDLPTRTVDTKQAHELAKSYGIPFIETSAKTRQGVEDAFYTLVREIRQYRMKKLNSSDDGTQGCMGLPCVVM

| IC50 [1] | SMILES | Kd (NRAS G12D C118S) |
| --- | --- | --- |
| – | C#Cc1c(F)ccc2cc(O)cc(-c3ncc4c([C@H]5[C@@H]6CNC[C@@H]65)cn(C)c4c3F)c12 [Example 2, 4-(3-((1R,5S,6S)-3-azabicyclo[3.1.0]hexan-6-yl)-7-fluoro-1-methyl-1H-pyrrolo[3,2-c]pyridin-6-yl)-5-ethynyl-6-fluoronaphthalen-2-ol 2,2,2-trifluoroacetate] | 0.0526 µM |
| 925 nM | C#Cc1c(F)ccc2cc(O)cc(-c3ncc4c([C@H]5[C@@H]6CNC[C@@H]65)nn(C)c4c3F)c12 [Example 3, 4-(3-((1R,5S,6r)-3-azabicyclo[3.1.0]hexan-6-yl)-7-fluoro-1-methyl-1H-pyrazolo[4,3-c]pyridin-6-yl)-5-ethynyl-6-fluoronaphthalen-2-ol] | 0.085 µM |
| 394 nM | C#Cc1c(F)ccc2cc(O)cc(-c3ncc4c([C@H]5[C@@H]6CNC[C@@H]65)nn(C5CC5)c4c3F)c12 [Example 4, 4-(3-((1R,5S,6r)-3-azabicyclo[3.1.0]hexan-6-yl)-1-cyclopropyl-7-fluoro-1H-pyrazolo[4,3-c]pyridin-6-yl)-5-ethynyl-6-fluoronaphthalen-2-ol 2,2,2-trifluoroacetate] | 0.0205 µM |
| – | C#Cc1c(F)ccc2cc(O)cc(-c3cc4c(cn3)c(N3CC5CCC(C3)N5)nn4CC)c12 [Example 6, 4-(3-(3,8-diazabicyclo[3.2.1]octan-3-yl)-1-ethyl-1H-pyrazolo[4,3-c]pyridin-6-yl)-5-ethynyl-6-fluoronaphthalen-2-ol] | 8.2 µM |
| – | C#Cc1c(F)ccc2cc(O)cc(-c3cc4c(cn3)c(N3CC5CCC(C3)N5)nn4CCC)c12 [Example 7, 4-(3-(3,8-diazabicyclo[3.2.1]octan-3-yl)-1-propyl-1H-pyrazolo[4,3-c]pyridin-6-yl)-5-ethynyl-6-fluoronaphthalen-2-ol] | 4.75 µM |
| – | C#Cc1c(F)ccc2cc(O)cc(-c3ncc4c(C5=CC6CCC(C5)N6)nn(CC)c4c3F)c12 (centres unmarked) [Example 9, 4-(3-(8-azabicyclo[3.2.1]oct-2-en-3-yl)-1-ethyl-7-fluoro-1H-pyrazolo[4,3-c]pyridin-6-yl)-5-ethynyl-6-fluoronaphthalen-2-ol] | 16.2 µM |
| – | C#Cc1c(F)ccc2cc(O)cc(-c3ncc4c(N5CCNCC5)nn(CC)c4c3F)c12 [Example 10, 4-(1-ethyl-7-fluoro-3-(piperazin-1-yl)-1H-pyrazolo[4,3-c]pyridin-6-yl)-5-ethynyl-6-fluoronaphthalen-2-ol] | 38.7 µM |
| – | C#Cc1c(F)ccc2cc(O)cc(-c3ncc4c(N[C@H]5[C@@H]6CNC[C@@H]65)nn(CC)c4c3F)c12 [Example 11, 4-(3-(((1R,5S,6s)-3-azabicyclo[3.1.0]hexan-6-yl)amino)-1-ethyl-7-fluoro-1H-pyrazolo[4,3-c]pyridin-6-yl)-5-ethynyl-6-fluoronaphthalen-2-ol] | 31 µM |
| – | C#Cc1c(F)ccc2cc(O)cc(-c3ncc4c(NCC5(N(C)C)CCC5)nn(CC)c4c3F)c12 [Example 12, 4-(3-(((1-(dimethylamino)cyclobutyl)methyl)amino)-1-ethyl-7-fluoro-1H-pyrazolo[4,3-c]pyridin-6-yl)-5-ethynyl-6-fluoronaphthalen-2-ol] | 8.35 µM |
| – | C#Cc1c(F)ccc2cc(O)cc(-c3ncc4c(N5CC6CCC(C5)N6)nn(CCC)c4c3F)c12 [Example 14, 4-(3-(3,8-diazabicyclo[3.2.1]octan-3-yl)-7-fluoro-1-propyl-1H-pyrazolo[4,3-c]pyridin-6-yl)-5-ethynyl-6-fluoronaphthalen-2-ol] | 4.41 µM |
| – | C#Cc1c(F)ccc2cc(O)cc(-c3ncc4c(N5CC6CCC(C5)N6)nn(CC5CCOC5)c4c3F)c12 (centres unmarked) [Example 15, 4-(3-(3,8-diazabicyclo[3.2.1]octan-3-yl)-7-fluoro-1-((tetrahydrofuran-3-yl)methyl)-1H-pyrazolo[4,3-c]pyridin-6-yl)-5-ethynyl-6-fluoronaphthalen-2-ol] | 5.97 µM |
| – | C#Cc1c(F)ccc2cc(O)cc(-c3ncc4c(N5CC6CCC(C5)N6)nn(C5CCC5)c4c3F)c12 [Example 16, 4-(3-(3,8-diazabicyclo[3.2.1]octan-3-yl)-1-cyclobutyl-7-fluoro-1H-pyrazolo[4,3-c]pyridin-6-yl)-5-ethynyl-6-fluoronaphthalen-2-ol] | 5.65 µM |
| – | C#Cc1c(F)ccc2cc(O)cc(-c3ncc4c(N5CC6CCC(C5)N6)n[nH]c4c3F)c12 [Example 17, 4-(3-(3,8-diazabicyclo[3.2.1]octan-3-yl)-7-fluoro-1H-pyrazolo[4,3-c]pyridin-6-yl)-5-ethynyl-6-fluoronaphthalen-2-ol] | 30.8 µM |
| – | C#Cc1c(F)ccc2cc(O)cc(-c3cc4[nH]nc(N5CC6CCC(C5)N6)c4cn3)c12 [Example 18, 4-(3-(3,8-diazabicyclo[3.2.1]octan-3-yl)-1H-pyrazolo[4,3-c]pyridin-6-yl)-5-ethynyl-6-fluoronaphthalen-2-ol] | 40.5 µM |
| – | C#Cc1c(F)ccc2cc(O)cc(-c3cc4c(cn3)c(N3C5CCC3CNC5)nn4C)c12 [Example 19, 4-(3-(3,8-diazabicyclo[3.2.1]octan-8-yl)-1-methyl-1H-pyrazolo[4,3-c]pyridin-6-yl)-5-ethynyl-6-fluoronaphthalen-2-ol] | 6.1 µM |
| – | C#Cc1c(F)ccc2cc(O)cc(-c3ncc4c([C@H]5[C@@H]6CNC[C@@H]65)nn(CC)c4c3F)c12 [Example 20, 4-(3-((1R,5S,6r)-3-azabicyclo[3.1.0]hexan-6-yl)-1-ethyl-7-fluoro-1H-pyrazolo[4,3-c]pyridin-6-yl)-5-ethynyl-6-fluoronaphthalen-2-ol] | 0.159 µM |
| – | C#Cc1c(F)ccc2cc(O)cc(-c3cc4c(cn3)c([C@H]3[C@@H]5CNC[C@@H]53)cn4C)c12 [Example 22, 4-(3-((1R,5S,6s)-3-azabicyclo[3.1.0]hexan-6-yl)-1-methyl-1H-pyrrolo[3,2-c]pyridin-6-yl)-5-ethynyl-6-fluoronaphthalen-2-ol] | 1.64 µM |
| – | C#Cc1c(F)ccc2cc(O)cc(-c3ncc4c([C@H]5[C@@H]6CNC[C@@H]65)c(CO)n(C)c4c3F)c12 [Example 23, 4-(3-((1R,5S,6s)-3-azabicyclo[3.1.0]hexan-6-yl)-7-fluoro-2-(hydroxymethyl)-1-methyl-1H-pyrrolo[3,2-c]pyridin-6-yl)-5-ethynyl-6-fluoronaphthalen-2-ol] | 13.7 µM |
